Measured values: patent US6737383B1, “Herbicidal oxadiazolidines” (priority 1999, dated 2004)

Assays:
soybean = assay: Test B pre/postemergence soybean; format: in vivo, Glycine max
How it was run: (§1)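 Herbicidal effect was estimated by eye on a ten-point control scale after plants spent twelve to sixteen days in a greenhouse following soil or foliar treatment. Foliar sprays targeted plants at one to four leaves; all doses were formulated in a non-phytotoxic solvent with surfactant.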

giant foxtail = assay: Test B pre/postemergence giant foxtail; format: in vivo, Setaria faberii
How it was run: as §1

crabgrass = assay: Test B pre/postemergence crabgrass; format: in vivo, Digitaria sanguinalis
How it was run: as §1

rape = assay: Test B pre/postemergence rape; format: in vivo, Brassica napus
How it was run: as §1

velvetleaf = assay: Test B pre/postemergence velvetleaf; format: in vivo, Abutilon theophrasti
How it was run: as §1

blackgrass = assay: Test B pre/postemergence blackgrass; format: in vivo, Alopecurus myosuroides
How it was run: as §1

wheat = assay: Test B pre/postemergence wheat; format: in vivo, Triticum aestivum
How it was run: as §1

pigweed = assay: Test B pre/postemergence pigweed; format: in vivo, Amaranthus retroflexus
How it was run: as §1

morningglory = assay: Test B pre/postemergence morningglory; format: in vivo, Ipomoea hederacea
How it was run: as §1

corn = assay: Test B pre/postemergence corn; format: in vivo, Zea mays
How it was run: as §1

cocklebur = assay: Test B pre/postemergence cocklebur; format: in vivo, Xanthium strumarium
How it was run: as §1

bedstraw = assay: Test B pre/postemergence bedstraw; format: in vivo, Galium aparine
How it was run: as §1

purple nutsedge = assay: Test B pre/postemergence purple nutsedge; format: in vivo, Cyperus rotundus
How it was run: as §1

surinam grass = assay: Test B pre/postemergence surinam grass; format: in vivo, Brachiaria decumbens
How it was run: as §1

wild oat = assay: Test B pre/postemergence wild oat; format: in vivo, Avena fatua
How it was run: as §1

[1] = Postemergence, Rate 62 g/ha, scale 0 to 10, 0 is no effect, 10 is complete control
[2] = Postemergence, Rate 125 g/ha, scale of 0 to 10 where 0 is no effect and 10 is complete control
[3] = Preemergence, Rate 62 g/ha, scale of 0 to 10 where 0 is no effect and 10 is complete control
[4] = Preemergence, Rate 125 g/ha, scale of 0 to 10 where 0 is no effect and 10 is complete control
[5] = Preemergence, Rate 250 g/ha, scale 0 to 10 (0 no effect, 10 complete control)
[6] = Preemergence, Rate 500 g/ha, scale of 0 to 10 where 0 is no effect and 10 is complete control
[7] = Rate 500 g/ha, Postemergence, scale 0 to 10, 0 is no effect, 10 is complete control
[8] = Postemergence, Rate 250 g/ha, scale of 0 to 10, 0 is no effect, 10 is complete control

Structure (SMILES): C=C(Cc1ccccc1)Cn1c(=O)on(C(=O)N(c2ccccc2)C(C)C)c1=O [Compound 650]
- Plant response rating, Soybean (soybean; [1]): 2
- Soybean plant response rating (soybean; [2]): 4
- Soybean plant response rating (soybean; [3]): 0
- Soybean plant response rating (soybean; [4]): 0
- Plant response rating, Soybean (soybean; [5]): 0
- Plant response rating, Soybean (soybean; [6]): 0
- Soybean plant response rating (soybean; [7]): 5
- Plant response rating, Giant foxtail (giant foxtail; [1]): 0
- Giant foxtail plant response rating (giant foxtail; [2]): 2
- Giant foxtail plant response rating (giant foxtail; [8]): 8
- Giant foxtail plant response rating (giant foxtail; [3]): 7
- Giant foxtail plant response rating (giant foxtail; [4]): 10
- Plant response rating, Giant foxtail (giant foxtail; [5]): 10
- Plant response rating, Giant foxtail (giant foxtail; [6]): 10
- Giant foxtail plant response rating (giant foxtail; [7]): 8
- Plant response rating, Crabgrass (crabgrass; [1]): 0
- Crabgrass plant response rating (crabgrass; [2]): 1
- Crabgrass plant response rating (crabgrass; [8]): 7
- Crabgrass plant response rating (crabgrass; [3]): 3
- Crabgrass plant response rating (crabgrass; [4]): 8
- Plant response rating, Crabgrass (crabgrass; [5]): 9
- Plant response rating, Crabgrass (crabgrass; [6]): 9
- Crabgrass plant response rating (crabgrass; [7]): 9
- Plant response rating, Rape (rape; [1]): 0
- Rape plant response rating (rape; [2]): 0
- Rape plant response rating (rape; [3]): 0
- Rape plant response rating (rape; [4]): 0
- Plant response rating, Rape (rape; [5]): 0
- Plant response rating, Rape (rape; [6]): 2
- Rape plant response rating (rape; [7]): 3
- Plant response rating, Velvetleaf (velvetleaf; [1]): 0
- Velvetleaf plant response rating (velvetleaf; [2]): 0
- Velvetleaf plant response rating (velvetleaf; [3]): 0
- Velvetleaf plant response rating (velvetleaf; [4]): 0
- Plant response rating, Velvetleaf (velvetleaf; [5]): 0
- Plant response rating, Velvetleaf (velvetleaf; [6]): 0
- Velvetleaf plant response rating (velvetleaf; [7]): 2
- Plant response rating, Blackgrass (blackgrass; [1]): 0
- Blackgrass plant response rating (blackgrass; [2]): 0
- Blackgrass plant response rating (blackgrass; [8]): 0
- Blackgrass plant response rating (blackgrass; [3]): 0
- Blackgrass plant response rating (blackgrass; [4]): 0
- Plant response rating, Blackgrass (blackgrass; [5]): 0
- Plant response rating, Blackgrass (blackgrass; [6]): 3
- Blackgrass plant response rating (blackgrass; [7]): 3
- Plant response rating, Wheat (wheat; [1]): 0
- Wheat plant response rating (wheat; [2]): 0
- Wheat plant response rating (wheat; [3]): 0
- Wheat plant response rating (wheat; [4]): 0
- Plant response rating, Wheat (wheat; [5]): 0
- Plant response rating, Wheat (wheat; [6]): 0
- Wheat plant response rating (wheat; [7]): 0
- Plant response rating, Redroot pigweed (pigweed; [1]): 2
- Redroot pigweed plant response rating (pigweed; [2]): 6
- Redroot pigweed plant response rating (pigweed; [3]): 1
- Redroot pigweed plant response rating (pigweed; [4]): 7
- Plant response rating, Redroot pigweed (pigweed; [5]): 7
- Plant response rating, Redroot pigweed (pigweed; [6]): 9
- Redroot pigweed plant response rating (pigweed; [7]): 6
- Plant response rating, Morningglory (morningglory; [1]): 4
- Morningglory plant response rating (morningglory; [2]): 10
- Morningglory plant response rating (morningglory; [8]): 10
- Morningglory plant response rating (morningglory; [3]): 0
- Morningglory plant response rating (morningglory; [4]): 0
- Plant response rating, Morningglory (morningglory; [5]): 1
- Plant response rating, Morningglory (morningglory; [6]): 1
- Morningglory plant response rating (morningglory; [7]): 10
- Plant response rating, Corn (corn; [1]): 0
- Corn plant response rating (corn; [2]): 0
- Corn plant response rating (corn; [8]): 2
- Corn plant response rating (corn; [3]): 0
- Corn plant response rating (corn; [4]): 0
- Plant response rating, Corn (corn; [5]): 0
- Plant response rating, Corn (corn; [6]): 0
- Corn plant response rating (corn; [7]): 4
- Plant response rating, Cocklebur (cocklebur; [1]): 0
- Cocklebur plant response rating (cocklebur; [2]): 0
- Cocklebur plant response rating (cocklebur; [8]): 0
- Cocklebur plant response rating (cocklebur; [3]): 0
- Cocklebur plant response rating (cocklebur; [4]): 0
- Plant response rating, Cocklebur (cocklebur; [5]): 0
- Plant response rating, Cocklebur (cocklebur; [6]): 0
- Cocklebur plant response rating (cocklebur; [7]): 0
- Bedstraw plant response rating (bedstraw; [3]): 0
- Bedstraw plant response rating (bedstraw; [4]): 0
- Plant response rating, Bedstraw (bedstraw; [5]): 0
- Plant response rating, Bedstraw (bedstraw; [6]): 5
- Plant response rating, Nutsedge (purple nutsedge; [1]): 2
- Nutsedge plant response rating (purple nutsedge; [2]): 2
- Nutsedge plant response rating (purple nutsedge; [4]): 3
- Plant response rating, Nutsedge (purple nutsedge; [5]): 7
- Plant response rating, Nutsedge (purple nutsedge; [6]): 5
- Nutsedge plant response rating (purple nutsedge; [7]): 4
- Plant response rating, B. signalgrass (surinam grass; [1]): 0
- Plant response rating, B. signalgrass (surinam grass; [2]): 0
- B. signalgrass plant response rating (surinam grass; [8]): 0
- B. signalgrass plant response rating (surinam grass; [3]): 0
- B. signalgrass plant response rating (surinam grass; [4]): 0
- Plant response rating, B. signalgrass (surinam grass; [5]): 0
- Plant response rating, B. signalgrass (surinam grass; [6]): 4
- B. signalgrass plant response rating (surinam grass; [7]): 2
- Plant response rating, Wild oats (wild oat; [1]): 0
- Wild oats plant response rating (wild oat; [2]): 0
- Wild oats plant response rating (wild oat; [3]): 0
- Wild oats plant response rating (wild oat; [4]): 0
- Plant response rating, Wild oats (wild oat; [5]): 0
- Plant response rating, Wild oats (wild oat; [6]): 0
- Wild oats plant response rating (wild oat; [7]): 0

Structure (SMILES): CC(C)N(C(=O)n1oc(=O)n(CC2CCCCO2)c1=O)c1ccccc1 (stereo not shown) [Compound 659]
- Plant response rating, Soybean (soybean; [1]): 2
- Soybean plant response rating (soybean; [2]): 3
- Soybean plant response rating (soybean; [3]): 0
- Soybean plant response rating (soybean; [4]): 0
- Plant response rating, Soybean (soybean; [5]): 0
- Plant response rating, Soybean (soybean; [6]): 2
- Soybean plant response rating (soybean; [7]): 7
- Plant response rating, Giant foxtail (giant foxtail; [1]): 5
- Giant foxtail plant response rating (giant foxtail; [2]): 7
- Giant foxtail plant response rating (giant foxtail; [8]): 8
- Giant foxtail plant response rating (giant foxtail; [3]): 9
- Giant foxtail plant response rating (giant foxtail; [4]): 9
- Plant response rating, Giant foxtail (giant foxtail; [5]): 9
- Plant response rating, Giant foxtail (giant foxtail; [6]): 10
- Giant foxtail plant response rating (giant foxtail; [7]): 8
- Plant response rating, Crabgrass (crabgrass; [1]): 1
- Crabgrass plant response rating (crabgrass; [2]): 6
- Crabgrass plant response rating (crabgrass; [8]): 6
- Crabgrass plant response rating (crabgrass; [3]): 8
- Crabgrass plant response rating (crabgrass; [4]): 8
- Plant response rating, Crabgrass (crabgrass; [6]): 10
- Crabgrass plant response rating (crabgrass; [7]): 8
- Plant response rating, Rape (rape; [1]): 0
- Rape plant response rating (rape; [2]): 0
- Rape plant response rating (rape; [3]): 0
- Rape plant response rating (rape; [4]): 0
- Plant response rating, Rape (rape; [5]): 2
- Plant response rating, Rape (rape; [6]): 10
- Rape plant response rating (rape; [7]): 1
- Plant response rating, Velvetleaf (velvetleaf; [1]): 0
- Velvetleaf plant response rating (velvetleaf; [2]): 3
- Velvetleaf plant response rating (velvetleaf; [3]): 0
- Velvetleaf plant response rating (velvetleaf; [4]): 0
- Plant response rating, Velvetleaf (velvetleaf; [5]): 6
- Plant response rating, Velvetleaf (velvetleaf; [6]): 7
- Velvetleaf plant response rating (velvetleaf; [7]): 6
- Plant response rating, Blackgrass (blackgrass; [1]): 1
- Blackgrass plant response rating (blackgrass; [2]): 6
- Blackgrass plant response rating (blackgrass; [8]): 7
- Blackgrass plant response rating (blackgrass; [3]): 3
- Blackgrass plant response rating (blackgrass; [4]): 6
- Plant response rating, Blackgrass (blackgrass; [5]): 7
- Plant response rating, Blackgrass (blackgrass; [6]): 9
- Blackgrass plant response rating (blackgrass; [7]): 7
- Plant response rating, Wheat (wheat; [1]): 0
- Wheat plant response rating (wheat; [2]): 0
- Wheat plant response rating (wheat; [3]): 0
- Wheat plant response rating (wheat; [4]): 0
- Plant response rating, Wheat (wheat; [5]): 2
- Plant response rating, Wheat (wheat; [6]): 7
- Wheat plant response rating (wheat; [7]): 5
- Plant response rating, Redroot pigweed (pigweed; [1]): 0
- Redroot pigweed plant response rating (pigweed; [2]): 0
- Redroot pigweed plant response rating (pigweed; [3]): 6
- Redroot pigweed plant response rating (pigweed; [4]): 6
- Plant response rating, Redroot pigweed (pigweed; [5]): 9
- Plant response rating, Redroot pigweed (pigweed; [6]): 10
- Redroot pigweed plant response rating (pigweed; [7]): 7
- Plant response rating, Morningglory (morningglory; [1]): 4
- Morningglory plant response rating (morningglory; [2]): 10
- Morningglory plant response rating (morningglory; [8]): 10
- Morningglory plant response rating (morningglory; [3]): 0
- Morningglory plant response rating (morningglory; [4]): 0
- Plant response rating, Morningglory (morningglory; [5]): 0
- Plant response rating, Morningglory (morningglory; [6]): 6
- Morningglory plant response rating (morningglory; [7]): 10
- Plant response rating, Corn (corn; [1]): 0
- Corn plant response rating (corn; [2]): 0
- Corn plant response rating (corn; [8]): 4
- Corn plant response rating (corn; [3]): 0
- Corn plant response rating (corn; [4]): 0
- Plant response rating, Corn (corn; [5]): 7
- Plant response rating, Corn (corn; [6]): 9
- Corn plant response rating (corn; [7]): 6
- Plant response rating, Cocklebur (cocklebur; [1]): 0
- Cocklebur plant response rating (cocklebur; [2]): 0
- Cocklebur plant response rating (cocklebur; [8]): 0
- Cocklebur plant response rating (cocklebur; [3]): 0
- Cocklebur plant response rating (cocklebur; [4]): 0
- Plant response rating, Cocklebur (cocklebur; [5]): 0
- Plant response rating, Cocklebur (cocklebur; [6]): 0
- Cocklebur plant response rating (cocklebur; [7]): 2
- Plant response rating, Bedstraw (bedstraw; [1]): 0
- Bedstraw plant response rating (bedstraw; [2]): 0
- Plant response rating, Nutsedge (purple nutsedge; [1]): 0
- Nutsedge plant response rating (purple nutsedge; [2]): 0
- Nutsedge plant response rating (purple nutsedge; [3]): 0
- Nutsedge plant response rating (purple nutsedge; [4]): 0
- Plant response rating, Nutsedge (purple nutsedge; [5]): 0
- Plant response rating, Nutsedge (purple nutsedge; [6]): 0
- Nutsedge plant response rating (purple nutsedge; [7]): 0
- Plant response rating, B. signalgrass (surinam grass; [1]): 0
- Plant response rating, B. signalgrass (surinam grass; [2]): 5
- B. signalgrass plant response rating (surinam grass; [8]): 5
- B. signalgrass plant response rating (surinam grass; [3]): 2
- B. signalgrass plant response rating (surinam grass; [4]): 4
- Plant response rating, B. signalgrass (surinam grass; [5]): 4
- Plant response rating, B. signalgrass (surinam grass; [6]): 8
- B. signalgrass plant response rating (surinam grass; [7]): 8
- Plant response rating, Wild oats (wild oat; [1]): 0
- Wild oats plant response rating (wild oat; [2]): 0
- Wild oats plant response rating (wild oat; [3]): 0
- Wild oats plant response rating (wild oat; [4]): 0
- Plant response rating, Wild oats (wild oat; [5]): 3
- Plant response rating, Wild oats (wild oat; [6]): 9
- Wild oats plant response rating (wild oat; [7]): 3
